Data: patent US20240199557A1, “METHODS OF MAKING 1-BENZYL-4-PHENYL-1H-1,2,3-TRIAZOLE (BPT) AND BPT COATED STRUCTURES” (BOARD OF REGENTS, THE UNIVERSITY OF TEXAS SYSTEM, priority 2022, published 2024)

Tests used:
[1] = Anodic cyclic polarization (CYP): pitting potential
Description: (§1) The steel cylinder working electrode (WE) were cross-sectioned and encased in epoxy. The surface was polished using 120 grit to 600 grit SiC paper, resulting in an exposed area of 0.499±0.01 cm^2. A Pt mesh was used as the counter electrode (CE). In terms of the reference electrodes (RE), a Saturated Calomel Electrode (SCE) was used for solutions with chloride and a Mercury Mercurous Sulfate Electrode (MSE) for solutions without chloride, satisfying the electrochemical cell requirements of ASTM standard G5 [38]. Though the experiments without chlorides were measured with MSE, the results were converted to SCE.
(§2) The WE, RE, and CE were placed in a test cell containing a synthetic pore solution (SPS). This SPS mimics the concrete pore environment and followed a formula consisting of 8.33 g/L NaOH+23.3 g/L KOH+2.0 g/L Ca(OH)2 (pH:13.6). These solutions were prepared using deionized water from a Milli-Q Water Purification System (resistivity: 18.2-18.7 MΩ·cm) and analytically pure grade reagents.
The testing procedure involved an initial pH measurement of the solution followed by purging the cell with CO2-free air (300 cc/min or more) for 5 minutes, prior to introducing the WE and throughout the experiment to reduce the effects of carbonation. More details can be found elsewhere. 2 M NaCl was chosen for the experiments since previously tested concentrations were not able to break the passive film generated in this highly alkaline environment. After chloride addition, the electrolyte was stirred for 4 h, while continuing to purge with CO2-free air. Then stirring stopped and purging was continued for 20 h to allow for passivation of the substrate. […] This procedure is similar to ASTM G180 [41]. The difference is related to the use of SPS instead of a cement slurry. Using a Gamry Reference 600+Potentiostat, different electrochemical tests were performed including open circuit potential (OCP), linear polarization resistance (LPR) and Anodic Cyclic Polarization (CYP).
LPR tests were performed from −0.030 V to +0.030 V from OCP, with a scan rate of 0.167 mV/s, in accordance with ASTM G59. CYP ran at a scan rate of 0.167 mV/s, beginning at 0.030 V more negative than the OCP with a maximum i of 1 mA/cm^2. Tests were performed to verify that pitting was occurring and not crevice corrosion occurred during CYP. After each experiment, the specimen was rinsed with D.I. water, degreased with ethanol, and dried. Surface images were taken using BX53 Olympus microscope to evaluate the corrosion morphology. […]
It is observed that for all conditions evaluated the passive film on the steel was formed, but the pitting potential (Ep) changed, being higher with the increase in BPT concentration (Table 3).

[2] = XRD quantitative phase analysis of carbon steel discs after immersion
Protocol: Four 3 mm height discs were cut from […] diameter steel rebar and one of their flat faces was polished using silicon carbide sandpaper with 250, 400 and, 600 grit. Subsequently each disc was immersed for 90 seconds in 10 mL of a freshly prepared Clarke solution [42], rinsed thoroughly with water, acetone and dried under a soft stream of dry N2. The crystalline structure of the samples was analyzed on their sheeny face employing X-Ray powder diffraction (XRD) using a Bruker D8 Advance Eco diffractometer applying Cu-Kα1,2 radiation. All samples were scanned at 40 kV and 25 mA in the […] of 31-66° and 2.0 s of step time per 2θ=0.019°. The crystalline planes used to perform the quantitative phase analysis (QPA) are for iron at 2θ=44.6°; [2,0,0] for lepidocrocite at 2θ=47.4° and, [2,2,0] for goethite at 2θ=33.6°.
Subsequently, each one of the discs was immersed in a solution with the composition as described on Table 5 and their surfaces were analyzed using XRD four weeks later. The diffraction patterns are shown in FIG. 9 and the quantitative phase analysis (QPA) data is given on Table 6.

[3] = A36 mild steel, 1M HCl, 298 K; 2.311 mm/year without inhibitor; cited from earlier work
[4] = Linear polarization resistance (LPR): corrosion rate and inhibitor efficiency of steel rebar in synthetic pore solution
Description: as §1, §2
The testing procedure involved an initial pH measurement of the solution followed by purging the cell with CO2-free air (300 cc/min or more) for 5 minutes, prior to introducing the WE and throughout the experiment to reduce the effects of carbonation. More details can be found elsewhere. 2 M NaCl was chosen for the experiments since previously tested concentrations were not able to break the passive film generated in this highly alkaline environment. After chloride addition, the electrolyte was stirred for 4 h, while continuing to purge with CO2-free air. Then stirring stopped and purging was continued for 20 h to allow for passivation of the substrate. […]
The results of the LPR measurements for the different conditions tested are presented in FIG. 3 as CR, which was determined using an estimated Stem-Geary coefficient (B) of 26 mV (corroding bars) and Rp values calculated, all following ASTM G59 [72, 73]. […]
The efficiency (IE, %) of the BPT was calculated using the CR results when Cl^− was added to the control solution (CRSPS) and solutions containing BPT (CRBPT), using Equation (1). […]

[5] = Stability/solubility of BPT in SPS and co-dissolvers; type: physicochemical
Protocol: Initial tests were run to find the stability/solubility of BPT in SPS. […] Several co-dissolvers were tested (ethyl alcohol 95%, isopropyl alcohol, acetone, dimethylsulfoxide, dimethylformamide, ethylenglycol, diethylenglycol, and 1-Methyl-2-pyrrolidinone), to aid in the solubility of the BPT in SPS. From these co-dissolvers, the organic compound N-methyl-2-pyrrolidone (NMP) performed the best and was selected at a concentration of 2.35 mg of BPT/mL of NMP (BPT saturated NMP solution).

c1ccc(Cn2cc(-c3ccccc3)nn2)cc1 [BPT, 1-Benzyl-4-Phenyl-1H-1,2,3-triazole]
Ep (pitting potential) ([1]; 1 mM BPT in SPS, 2M NaCl): 149.25 mV vs. SCE | Ep (pitting potential) ([1]; 2 mM BPT in SPS, 2M NaCl): 404.04 mV vs. SCE | Ep (pitting potential) ([1]; 3 mM BPT in SPS, 2M NaCl): 302.06 mV vs. SCE | Ep (pitting potential) ([1]; Adj. 3 mM BPT+NMP (hydroxide concentration adjusted to SPS), 2 M NaCl): 429.53±1.29 mV vs. SCE | AFe/AGoe ([2]; SPS with NaCl in presence of BPT): 0 | AFe/ALep ([2]; disc 4: SPS + 2M NaCl + NMP + 3 mM BPT, four-week immersion): 26,908 | corrosion kinetics (corrosion rate) with BPT [3]: 0.429 mm/year | efficiency (IE, %) ([4]; 3 mM BPT in SPS with 2 M NaCl, calculated from CR by Equation (1)): 85.2% | concentrations at which BPT can inhibit the corrosion of carbon steel rebar ([4]; SPS with 2 M NaCl): higher than 2 mM | optimal concentration of BPT to inhibit corrosion on carbon steel rebar ([4]; SPS with 2 M NaCl): 3 mM | stability in SPS ([5]; alkaline solution (SPS, pH 13.6)): stable in the alkaline solution | concentration of BPT saturated NMP solution ([5]; in N-methyl-2-pyrrolidone (NMP)): 2.35 mg of BPT/mL of NMP | solubility in water ([5]; water): unable to dissolve in water
